# Laboratory results from EP4608400B1, “COMPOUND FOR TREATMENT OF PAIN” (Initiator Pharma A/S, priority 2022, dated 2024).
# Where a name gives a salt, the structure may show the parent alone.
# How the values were obtained:
# [1] = system: intradermal capsaicin model; test: Phase I crossover study, intradermal capsaicin model: pharmacodynamics; assay type: in vivo, human
# Text: Participants. The volunteers were males aged 18 to 55 years with a body mass index (BMI) of 18 to 30 kg/m2. They were healthy as determined by a responsible physician, based on a medical evaluation including medical history, physical examination, concomitant medication, vital signs, 12-lead ECG, and clinical laboratory evaluations. The participants must have been in good general health with a skin type compatible with the measures and without significant skin allergies, pigmentary disorders or any active dermatological conditions. […] The participants provided written informed consent, which included compliance with the requirements and restrictions listed in the consent form, including the use of a condom during the trial and for 3 months after their final dose of trial medication, if their partner was a woman of childbearing potential.
# Clinical and laboratory data. Prior to and 15, 30, 60, 90 and 120 minutes after administration of capsaicin, measurements of pain, hyperalgesia, allodynia and AF were performed. At 2 hours post-capsaicin injection, subjects completed a quantitative sensory testing (QST) battery at two sites on the volar surface of each forearm. One site was the most recent capsaicin injection site, and the other was at an equivalent point on the opposite forearm. […] There was a minimum washout period of 5 days between treatment periods.
# Reconstitution was performed by a Pharmacist at the clinical site prior to dosing.
# (§1) In order to maintain the blind, a double dummy approach was used.
# Subjects were randomised to receive a single administration of a treatment combination during each treatment period. All subjects received each treatment combination once only.
# Evaluation methods: Pharmacodynamics was assessed through pain measurements (response to ID injection of capsaicin, measurement of pain using a visual analogue scale, area and pain score of hyperalgesia, area and pain score of allodynia, and AF) and the ID capsaicin model. Subjects also completed a QST battery at two sites on the volar surface of either forearm. The QST battery included the following tests: thermal detection and pain thresholds, mechanical detection and pain thresholds, stimulus/response functions, wind-up ratio and pressure pain threshold.
# For measurement of pain, a visual analogue scale (VAS) was used. The VAS consisted of a 100 mm line, with 0 representing "no pain" and 100 representing "worst pain imaginable". Subjects were asked to mark the VAS using a single vertical stroke at the point they considered to appropriately reflect their level of pain from the injection of capsaicin (not general pain). A new VAS was provided for each time point and subjects were not allowed to see their previous VAS responses. The VAS was scored by measuring from the left-hand end of the scale to the point where the subject had marked the line, and the distance in mm was recorded.
# Response to pain was also assessed by a numeric rating scale (NRS). For example, by using an 11-point numeric rating scale ranging from 0 ("no pain") to 10 ("worst possible pain") and asking the subject to rate their pain. A NRS scale of 0 to 100 was also used in some assesments.
# The thermal tests were performed using a thermode probe (Medoc). Cold and warm detection thresholds were measured first, then cold pain and heat pain thresholds were determined. The mean threshold temperature of 3 consecutive measurements was calculated. All thresholds were obtained with ramped stimuli (1°C/sec) that were terminated when the subject pressed a button. For thermal detection thresholds the ramp back to baseline was 1°C/sec, while for thermal pain thresholds this ramp was chosen at maximum device capacity resulting in approximately a nominal 5°C/sec.
# The mechanical detection threshold was measured with a standardised set of modified von Frey nylons that exerted forces upon bending between 0.25 and 512 mN graded by a factor of 2 (1 to 2 seconds contact time). […]
# [2] = Phase I crossover study, intradermal capsaicin model: safety evaluation (TEAEs); assay type: in vivo, human; details: 300 mg pregabalin
# Description: as §1
# Safety was assessed through AE reporting, 12-lead ECG, vital signs, physical examinations and clinical laboratory evaluations. Pharmacokinetics was assessed by blood sampling.
# [3] = molecular target: T1, dopamine (DA) reuptake in synaptosomes (Rattus norvegicus, UniProt P23977); details: hydrochloride; reported in US 9,133,184 B1; cited from earlier work
# T1 construct: in synaptosomes as described in WO 97/16451 (NeuroSearch A/S); from tissue
# T1 sequence (P23977 whole entry): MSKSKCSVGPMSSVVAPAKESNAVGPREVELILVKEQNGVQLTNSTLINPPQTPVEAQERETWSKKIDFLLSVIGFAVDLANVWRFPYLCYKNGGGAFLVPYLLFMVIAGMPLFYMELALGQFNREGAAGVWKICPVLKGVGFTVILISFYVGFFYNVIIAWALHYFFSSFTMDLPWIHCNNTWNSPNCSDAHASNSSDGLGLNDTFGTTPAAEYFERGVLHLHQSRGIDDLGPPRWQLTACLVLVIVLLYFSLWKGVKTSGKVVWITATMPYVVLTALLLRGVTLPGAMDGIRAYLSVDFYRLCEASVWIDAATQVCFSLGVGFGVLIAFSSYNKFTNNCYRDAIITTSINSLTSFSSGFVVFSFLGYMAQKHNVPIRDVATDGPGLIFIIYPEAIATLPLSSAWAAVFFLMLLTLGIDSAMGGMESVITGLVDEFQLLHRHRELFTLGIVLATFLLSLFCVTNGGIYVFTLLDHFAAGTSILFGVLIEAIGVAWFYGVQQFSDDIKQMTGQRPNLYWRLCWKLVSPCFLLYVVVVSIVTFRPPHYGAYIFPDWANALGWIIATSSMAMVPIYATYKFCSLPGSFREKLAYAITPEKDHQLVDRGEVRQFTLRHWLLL
# [4] = molecular target: T2, noradrenaline (NA) reuptake in synaptosomes (Rattus norvegicus, UniProt Q63380); details: hydrochloride; reported in US 9,133,184 B1; cited from earlier work
# T2 construct: in synaptosomes as described in WO 97/16451 (NeuroSearch A/S); from tissue
# T2 sequence (Q63380 1-617): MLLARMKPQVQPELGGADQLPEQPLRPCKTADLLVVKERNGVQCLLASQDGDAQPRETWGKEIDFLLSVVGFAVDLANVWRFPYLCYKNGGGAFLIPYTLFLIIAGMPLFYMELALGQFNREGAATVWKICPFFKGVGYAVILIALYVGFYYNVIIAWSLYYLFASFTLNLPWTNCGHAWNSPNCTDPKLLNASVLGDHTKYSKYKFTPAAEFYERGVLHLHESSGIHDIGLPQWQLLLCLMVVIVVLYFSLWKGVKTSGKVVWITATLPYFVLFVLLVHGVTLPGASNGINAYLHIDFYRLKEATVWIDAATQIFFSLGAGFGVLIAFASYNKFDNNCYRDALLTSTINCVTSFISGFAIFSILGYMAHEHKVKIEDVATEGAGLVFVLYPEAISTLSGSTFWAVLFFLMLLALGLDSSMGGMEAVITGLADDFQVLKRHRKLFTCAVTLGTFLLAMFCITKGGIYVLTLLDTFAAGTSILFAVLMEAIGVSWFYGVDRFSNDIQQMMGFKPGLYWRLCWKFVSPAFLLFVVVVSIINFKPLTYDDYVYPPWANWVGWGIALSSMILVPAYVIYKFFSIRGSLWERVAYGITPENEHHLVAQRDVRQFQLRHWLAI
smiles,measurement,setting,value
"CC(C)C[C@H](CN)CC(=O)O [pregabalin, reference compound]",adjusted mean pain score of hyperalgesia compared to placebo,"[1]; 5 mg and 10 mg IP2015, 300 mg pregabalin, all post-capsaicin injection timepoints",lower
same,average decrease in hyperalgesic area across all timepoints compared to placebo,[1]; 300 mg pregabalin,7.8 cm^2
same,"Pain Score of Brush-evoked Allodynia Using an NRS, Adjusted Mean (MMRM)","[1]; 300 mg pregabalin capsule, overall, all timepoints, N=24, placebo 2.0",1.5
same,"Subjective Rating of Pain, Adjusted Mean (MMRM)","[1]; 300 mg pregabalin capsule, overall, all timepoints, N=24, placebo 17.1",14.4 mm
same,decrease of subjective rating of pain compared to placebo,"[1]; 300 mg pregabalin, 15 min post capsaicin",1.5 mm
same,decrease of subjective rating of pain compared to placebo,"[1]; 300 mg pregabalin, 30 min post capsaicin",3.8 mm
same,decrease of subjective rating of pain compared to placebo,"[1]; 300 mg pregabalin, 60 min post capsaicin",4.4 mm
same,overall increase in warm detection threshold between test and control areas (QST),"[1]; 300 mg pregabalin, p = 0.063, post-hoc analysis",close to significance
same,incidence of TEAEs (share of subjects),[2],79.2%
same,moderate TEAE dizziness,[2],1 subject
same,moderate TEAE mood altered,[2],1 subject
same,number of TEAEs reported,[2],28 events
same,subjects reporting TEAEs,[2],19 subjects
"COc1cc2ccc(O[C@@H]3C[C@H]4CC[C@@H](C3)N4)cc2oc1=O [compound of formula (I) hydrochloride, exo-7-[(8-azabicyclo[3.2.1]octan-3-yl)oxy]-3-methoxy-chromen-2-one hydrochloride]",IC50,[3],70 nM
same,IC50,[4],3.8 nM
